Experimental data from patent publication US9388141B2, “Acylaminocycloalkyl compounds suitable for treating disorders that respond to modulation of dopamine D3 receptor” (AbbVie Deutschland GmbH & Co. KG, priority 2013, dated 2016).
pIC50, pKi: −log10 of the molar value.

Key:
[1] = target: T1, human dopamine D3 receptors (Homo sapiens, UniProt P35462); test: Dopamine D3 receptor binding, [125I]-iodosulpride displacement; settings: membranes of HEK-293 cells with human D3 receptors, 0.1 nM [125I]-iodosulpride
T1 construct: expressed in transfected cells; host or cells: HEK-293
Method: (§1) The substance to be tested was either dissolved in methanol/Chremophor® (BASF SE) or in dimethyl sulfoxide and then diluted with water to the desired concentration.
(§2) Each assay mixture was run in triplicate. • The incubation buffer contained 50 mM tris, 120 mM NaCl, 5 mM KCl, 2 mM CaCl2, 2 mM MgCl2 and 0.1% bovine serum albumin, 10 μM quinolone and 0.1% ascorbic acid (prepared fresh daily). […] Each assay mixture was run in triplicate. • The incubation buffer contained 50 mM tris, 120 mM NaCl, 5 mM KCl, 2 mM CaCl2, 2 mM MgCl2 and 0.1% bovine serum albumin. The buffer was adjusted to pH 7.4 with HCl. c) Measurement and Analysis: • After having been incubated at 25° C. for 60 minutes, the assay mixtures were filtered through a Whatman GF/B glass fiber filter under vacuum using a cell collecting device. The filters were transferred to scintillation viols using a filter transfer system. After 4 ml of Ultima Gold® (Packard) have been added, the samples were shaken for one hour and the radioactivity was then counted in a Beta-Counter (Packard, Tricarb 2000 or 2200CA).

[2] = Determination of the microsomal half-life / microsomal clearance; format: in vitro ADME; settings: human liver microsomes, 0.5 μM test substance, 0.25 mg microsomal protein/ml, pH 7.4, 37° C.
Method: The metabolic stability of the compounds of the invention was determined in the following assay.
The test substances were incubated in a concentration of 0.5 μM as follows:
0.5 μM test substance are preincubated together with liver microsomes from different species (from rat, human or other species) (0.25 mg of microsomal protein/ml) in 0.05 M potassium phosphate buffer of pH 7.4 in microtiter plates at 37° C. for 5 min. The reaction is started by adding NADPH (1 mg/mL). After 0, 5, 10, 15, 20 and 30 min, 50 μl aliquots are removed, and the reaction is immediately stopped and cooled with the same volume of acetonitrile. The samples are frozen until analyzed. The remaining concentration of undegraded test substance is determined by MSMS. The half-life (T1/2) is determined from the gradient of the signal of test substance/unit time plot, it being possible to calculate the half-life of the test substance, assuming first order kinetics, from the decrease in the concentration of the compound with time. The microsomal clearance (mCl) is calculated from mCl=1n2/T1/2/(content of microsomal protein in mg/ml)×1000 [[…]] (modified from references: Di, The Society for Biomoleculur Screening, 2003, 453-462; Obach, DMD, 1999 vol 27. N 11, 1350-1359).

[3] = target: T2, human dopamine D2L receptors (long isoform) (Homo sapiens, UniProt P14416); test: Dopamine D2L receptor binding, [125I]-iodospiperone displacement; settings: selectivity ratio Ki (D2L)/Ki (D3)
T2 construct: expressed in transfected cells; host or cells: HEK-293
Method: as §1, §2

hERG cardiac K+ channel = target: T3, hERG cardiac K+ channel (Homo sapiens, UniProt Q12809); test: Blocking the hERG channel, [3H]dofetilide displacement; format: binding; settings: membrane homogenate of HEK 293 cells with hERG K+ channels
T3 construct: expressed in transfected cells; host or cells: HEK-293
Method: The binding affinity of test drugs for the hERG cardiac K^+ channel was determined by their ability to displace tritiated dofetilide (a class III antiarrhythmic drug and potent hERG blocker) in membrane homogenates from HEK-293 cells heterogeneously expressing the hERG channel. The assay was performed as previously described G. J. Diaz et al., Journal of Pharmacological and Toxicological Methods, 50 (2004), 187-199). For this, drug dilutions were prepared from 10 mM DMSO stocks and the following were added to a 96-well polystyrene plate (Perkin-Elmer Optiplate): 20 μl of assay binding buffer (for total bounds), or […] astemizole (for non-specific bounds), or test drug, 50 μl of [^3H]dofetilide (20 nM, ˜80 Ci/mmol specific activity), and 130 μl of membrane homogenate from HEK 293 cells stably transfected with hERG K^+ channels (final protein concentration of 30 μg per well). The plates were incubated at ambient temperature for […], aspirated onto GF/B filter plates (Perkin-Elmer), and washed with 2 ml of cold wash buffer. After allowing the plates to dry, 50 μl of scintillant (Perkin-Elmer MicroScint 20) were added to each well and the radioactivity was counted in a Perkin-Elmer Topcount NXT scintillation counter. […]

T2 sequence (P14416 whole entry, canonical isoform): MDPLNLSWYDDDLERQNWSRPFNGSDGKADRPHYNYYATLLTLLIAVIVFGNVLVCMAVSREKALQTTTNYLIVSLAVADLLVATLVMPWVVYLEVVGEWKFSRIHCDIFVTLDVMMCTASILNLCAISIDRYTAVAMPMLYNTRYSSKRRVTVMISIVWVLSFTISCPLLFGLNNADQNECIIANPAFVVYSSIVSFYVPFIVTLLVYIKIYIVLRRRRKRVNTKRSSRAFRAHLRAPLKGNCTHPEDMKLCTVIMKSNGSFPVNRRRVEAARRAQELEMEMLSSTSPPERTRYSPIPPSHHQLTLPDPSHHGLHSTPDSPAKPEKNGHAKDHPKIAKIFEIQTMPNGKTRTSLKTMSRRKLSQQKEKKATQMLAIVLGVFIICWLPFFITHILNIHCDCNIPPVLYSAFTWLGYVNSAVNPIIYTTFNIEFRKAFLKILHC
T1 sequence (P35462 whole entry): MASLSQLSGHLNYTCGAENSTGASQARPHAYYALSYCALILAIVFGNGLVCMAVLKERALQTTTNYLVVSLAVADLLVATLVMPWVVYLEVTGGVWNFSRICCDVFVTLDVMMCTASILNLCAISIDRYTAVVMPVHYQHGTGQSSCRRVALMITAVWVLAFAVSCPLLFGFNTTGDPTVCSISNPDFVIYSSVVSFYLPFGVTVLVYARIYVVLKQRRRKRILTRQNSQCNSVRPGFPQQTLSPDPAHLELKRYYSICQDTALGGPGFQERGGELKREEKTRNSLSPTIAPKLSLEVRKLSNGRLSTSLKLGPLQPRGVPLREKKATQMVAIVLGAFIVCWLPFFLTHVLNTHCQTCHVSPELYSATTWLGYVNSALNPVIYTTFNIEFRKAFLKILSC
T3 sequence (Q12809 whole entry): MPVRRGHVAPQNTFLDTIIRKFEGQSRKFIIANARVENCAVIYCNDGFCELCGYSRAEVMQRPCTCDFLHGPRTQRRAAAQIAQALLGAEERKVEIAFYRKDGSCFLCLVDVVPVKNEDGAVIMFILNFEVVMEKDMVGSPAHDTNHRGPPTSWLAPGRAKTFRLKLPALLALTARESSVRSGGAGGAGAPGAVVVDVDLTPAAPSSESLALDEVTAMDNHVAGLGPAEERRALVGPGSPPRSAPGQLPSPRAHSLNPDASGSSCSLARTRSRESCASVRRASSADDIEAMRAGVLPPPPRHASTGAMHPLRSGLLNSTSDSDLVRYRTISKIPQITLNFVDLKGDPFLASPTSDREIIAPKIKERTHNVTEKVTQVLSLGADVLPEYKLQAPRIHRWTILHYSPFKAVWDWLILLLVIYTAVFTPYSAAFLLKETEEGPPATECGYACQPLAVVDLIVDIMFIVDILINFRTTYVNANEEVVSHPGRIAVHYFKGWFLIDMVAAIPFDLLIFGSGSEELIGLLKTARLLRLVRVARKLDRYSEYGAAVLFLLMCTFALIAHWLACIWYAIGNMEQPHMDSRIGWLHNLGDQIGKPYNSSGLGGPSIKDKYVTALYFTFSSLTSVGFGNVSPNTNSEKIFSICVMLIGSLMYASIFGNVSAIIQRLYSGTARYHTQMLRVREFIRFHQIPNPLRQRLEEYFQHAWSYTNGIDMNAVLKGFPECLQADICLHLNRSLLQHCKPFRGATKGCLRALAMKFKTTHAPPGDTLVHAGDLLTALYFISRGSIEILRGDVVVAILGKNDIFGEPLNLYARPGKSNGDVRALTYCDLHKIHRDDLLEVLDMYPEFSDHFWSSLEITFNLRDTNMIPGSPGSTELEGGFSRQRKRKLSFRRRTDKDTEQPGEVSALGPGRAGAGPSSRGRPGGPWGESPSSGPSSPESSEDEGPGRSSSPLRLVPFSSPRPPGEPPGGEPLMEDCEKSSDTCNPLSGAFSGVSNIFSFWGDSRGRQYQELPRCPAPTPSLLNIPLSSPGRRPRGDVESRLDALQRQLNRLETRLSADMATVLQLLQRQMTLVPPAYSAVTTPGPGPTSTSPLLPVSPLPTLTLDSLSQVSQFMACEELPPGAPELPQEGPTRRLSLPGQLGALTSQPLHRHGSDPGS

Row | Structure (SMILES) | pKi [1] | Human mCl [2] | D2/D3, Ki (D2L)/Ki (D3) [3] | pIC50 (hERG cardiac K+ channel)
1 | CC(C)(C)c1nc(C(F)F)cc(N2CCN(CC[C@H]3CC[C@@H](NC(=O)[C@H]4CC[C@H](O)CC4)CC3)CC2)n1 [Compound 30, Trans-N-[cis-4-[2-[4-[2-tert-butyl-6-(difluoromethyl)pyrimidin-4-yl]piperazin-1-yl]ethyl]cyclohexyl]-4-hydroxy-cyclohexanecarboxamide] | > 8.00 | + (+: 20-120 μl min^−1 mg^−1) | ++ (++>20) | 
2 | COCc1cc(N2CCN(CC[C@H]3CC[C@H](NC(=O)[C@H]4CC[C@H](O)CC4)CC3)CC2)nc(C(C)(C)C)n1 [Compound 37, trans-N-[trans-4-[2-[4-[2-tert-butyl-6-(methoxymethyl)pyrimidin-4-yl]piperazin-1-yl]ethyl]cyclohexyl]-4-hydroxy-cyclohexanecarboxamide] | > 8.00 | + (+: 20-120 μl min^−1 mg^−1) | +++ (+++>50) | 
3 | COCCc1cc(N2CCN(CC[C@H]3C[C@@H](NC(=O)[C@H]4CC[C@H](O)CC4)C3)CC2)nc(C(C)(C)C)n1.O=C(O)C(F)(F)F [Compound 8, trans-N-[cis-3-[2-[4-[2-tert-butyl-6-(2-methoxyethyl)pyrimidin-4-yl]piperazin-1-yl]ethyl]cyclobutyl]-4-hydroxy-cyclohexanecarboxamide; 2,2,2-trifluoroacetic acid] | > 8.00 | + (+: 20-120 μl min^−1 mg^−1) | +++ (+++>50) | 
4 | CC(C)(C)c1nc(C2CCC2)cc(N2CCN(CC[C@H]3CC[C@H](NC(=O)[C@H]4CC[C@@H](O)CC4)CC3)CC2)n1.O=C(O)C(F)(F)F [Compound 14, Cis-N-[trans-4-[2-[4-(2-tert-butyl-6-cyclobutyl-pyrimidin-4-yl)piperazin-1-yl]ethyl]cyclohexyl]-4-hydroxy-cyclohexanecarboxamide; 2,2,2-trifluoroacetic acid] | > 8.00 | ∘ (∘: >120 μl min^−1 mg^−1) | ++ (++>20) | 
5 | CC(C)(C)c1nc(C2CCC2)cc(N2CCN(CC[C@H]3CC[C@H](NC(=O)[C@H]4CC[C@H](O)CC4)CC3)CC2)n1 [Compound 1, trans-N-[trans-4-[2-[4-(2-tert-butyl-6-cyclobutyl-pyrimidin-4-yl)piperazin-1-yl]ethyl]cyclohexyl]-4-hydroxy-cyclohexanecarboxamide] | > 8.00 | + (+: 20-120 μl min^−1 mg^−1) | +++ (+++>50) | < 5.00
6 | CC(C)(C)c1nc(C2CCC2)cc(N2CCN(CC[C@H]3CC[C@H](NC(=O)C4CC(O)(C(F)(F)F)C4)CC3)CC2)n1 (relative stereo) [Compound 19, N-[trans-4-[2-[4-(2-tert-butyl-6-cyclobutyl-pyrimidin-4-yl)piperazin-1-yl]ethyl]cyclohexyl]-3-hydroxy-3-(trifluoromethyl)cyclobutanecarboxamide] | > 8.00 | + (+: 20-120 μl min^−1 mg^−1) | + (+>10) | 
7 | COCCc1cc(N2CCN(CC[C@H]3CC[C@H](NC(=O)[C@H]4C[C@@H](O)C4)CC3)CC2)nc(C(C)(C)C)n1 [Compound 18, cis-N-[trans-4-[2-[4-[2-tert-butyl-6-(2-methoxyethyl)pyrimidin-4-yl]piperazin-1-yl]ethyl]cyclohexyl]-3-hydroxy-cyclobutanecarboxamide] | > 8.00 | + (+: 20-120 μl min^−1 mg^−1) | +++ (+++>50) | 
8 | CC(C)(C)c1nc(C2CCC2)cc(N2CCN(CC[C@H]3CC[C@H](NC(=O)[C@H]4C[C@H](O)C4)CC3)CC2)n1.O=C(O)C(F)(F)F [Compound 38, trans-N-[trans-4-[2-[4-(2-tert-butyl-6-cyclobutyl-pyrimidin-4-yl)piperazin-1-yl]ethyl]cyclohexyl]-3-hydroxy-cyclobutanecarboxamide; 2,2,2-trifluoroacetic acid] | > 8.00 | ++ (++: <20 μl min^−1 mg^−1) | ++ (++>20) | 
